Common to all, as to format: in vivo
Experiment [1] relates to 3 tasters. The experiment is described as follows: Taste profile of Test Compound Na Salt with sucralose in pH 3.0 buffer (Example 7). The procedure:
The taste profile of the Test Compound Sweetener (Na Salt of the compound) was evaluated in combination with sweeteners—namely sucralose. These samples were evaluated in pH 3.0 buffer at 10 SE by 3 tasters. Samples were tasted in a blinded fashion using sip and spit methodology. The focus of the evaluation was to obtain an indication of the sweetness profile of the blends when compared to sucrose.
Materials and Methods. Potassium sorbate was dissolved into water. The remaining ingredients were added and mixed until fully dissolved. The samples were tasted using sip and spit method. The samples were then compared to each other and the HFCS-55 sweetness equivalence target (10 SE).

The test system of experiment [2] is trained descriptive analysis (DA) panel. The experiment is described as follows: Sensory evaluation of Test Compound/Reb M blends (sweetness quality and off-taste profile), 15 cm scale. The following applies: RO water, samples target 10 Brix sucrose, 1000 ppm Test Comp, 600 ppm Reb M; for Bitter Aftertaste (1 min) / Sweet Aftertaste (1 min): 1 minute after expectoration; for Bitter Aftertaste (3 min) / Sweet Aftertaste (3 min): 3 minutes after expectoration; for Astringent / Bitter / Licorice / Metallic / Sweet AT (Appearance Time) / Sweet Intensity (ns) / Thickness: room temperature, LSD means. The protocol:
Sensory results for sweetener blends with Reb M were evaluated using a trained descriptive analysis (DA) panel. Five blend samples were tested in this panel; wherein each sample was designed to target a sweetness equivalence of 10 Brix Sucrose.
Study Designs and Test Samples. A validated and trained panel of 10-12 descriptive analysis panelists participated in these experiments.
During the test sessions, panelists rated the intensity of each attribute on a 15 cm scale. Five test samples were tested for each attribute, in triplicate. The order of samples was randomized and blinded using the Williams Latin Square design. All samples were prepared in reverse osmosis (RO) water and served at room temperature and evaluated using a sip and spit protocol.
Each of the five samples were evaluated for sensory attributes corresponding to sweetness quality and off-taste profile. Attributes of sweetness intensity, sweetness appearance time, sweetness aftertaste and thickness were evaluated as part of the sweetness quality profiling. Specifically, for sweetness aftertaste two time points were evaluated; 1 minute and 3 minutes, after expectoration. The sweetness aftertaste corresponds to the sweetness linger characteristic, often common to high potency sweeteners.
Off-Taste Profile. All 5 blend samples were also evaluated for attributes of bitter, astringent, metallic, licorice, and bitter aftertaste, as part of the off-taste profiling. Specifically, for bitter aftertaste two time points were evaluated; 1 minute and 3 minutes, after expectoration. When referring to ‘bitter’ tastes herein it refers to a sample that confers a bitter taste, activates or that can be detected by a bitter taste receptor and/or confers the perception of a bitter taste in a subject. Table 5 lists the LSD Means Differences for the off-taste evaluation across the 5 blend samples with Reb M.

Experiment [3] has as its system 3 tasters. The experiment is described as follows: Taste profile of Test Compound Na Salt with Reb A in pH 3.0 buffer (Example 5). The protocol:
(§1) The taste profile of the Test Compound Sweetener (Na Salt of the compound) was evaluated in combination with sweeteners—namely Rebaudioside A (Reb A). Enliten® 300000 (Reb A 95) was used in combination with the Test Compound. These samples were evaluated in pH 3.0 buffer by 3 tasters. Samples were tasted in a blinded fashion using sip and spit methodology. The focus of the evaluation was to obtain an indication of the sweetness profile of the blends when compared to sucrose. Materials and Methods. Potassium sorbate was dissolved into water. The remaining ingredients were added and mixed until fully dissolved. The pH of each sample was recorded and the samples tasted using sip and spit method. The samples were then compared to each other.

The subject of experiment [4] is 3 tasters. The experiment is described as follows: Taste profile of Test Compound Na Salt with HFCS-55 in pH 3.0 buffer (Example 4). To be noted: Test Compound (Na Salt) 1100 ppm. The procedure: as §1, with “High Fructose Corn Syrup (HFCS-55).” for “Rebaudioside A (Reb A). Enliten® 300000 (Reb A 95) was used in combination with the Test Compound.”
Experiment [5] deals with trained descriptive analysis (DA) panel. The experiment is described as follows: Sensory evaluation of Test Compound/Reb M blends (sweetness quality and off-taste profile), 15 cm scale. The following applies: in water solution.
Experiment [6] shares this test system. The experiment is described as follows: Concentration-response testing of the Test Compound vs sucrose, sweetness intensity on gLMS. The following applies: in water at room temperature; tested range 0% to 0.2% (2000 ppm). The protocol: A concentration-response (CR) testing of the Test Compound was conducted using a trained descriptive analysis (DA) panel to compare the Test Compound in an aqueous matrix to sucrose. The concentration-response curve for the natural sweetener (Test Compound) was determined using a general Labeled Magnitude Scale (gLMS). Trained panelists were asked to rate the sweetness intensity of eight (8) concentrations of sweetener and sucrose, in water at room temperature (RT). […] This relationship was established using a dose response model (Equation 2: R=Rmin+(C^Hillslope)*(Rmax−Rmin)/(C^HillSlope+EC50^HillSlope) for Sucrose and the Test Compound Sweetener. Study design and Test Samples: A trained panel of 10-12 descriptive analysis panelists participated in the experiment. All participants underwent training, during which panelists familiarized themselves with rating the sweetness intensity on the gLMS scale. The scale is depicted in FIG. 4 as a vertical line marked with anchors describing different intensities. The panelists were instructed to rate the perceived sweetness intensity for each sample by marking a line on the scale. The order of samples was randomized and blinded using the William's Latin Square design. The order of sample presentation within each sweetener set was also randomized. All samples were evaluated using a sip and spit protocol.

[7] abbreviates: 10 SE target, Test Compound Na Salt 1100 ppm, blend 550 ppm + 85 ppm Sucralose, Sucralose 170 ppm.

On to `OC[C@H]1O[C@H](O[C@]2(CCl)O[C@H](CCl)[C@@H](O)[C@@H]2O)[C@H](O)[C@@H](O)[C@H]1Cl` [Sucralose, sucralose], for which, in the experiment with 3 tasters [1] (setting [7]), the mouthfeel and aftertaste/linger result is on record as “Significant aftertaste/linger”; the “sweetness vs HFCS-55 target” value was “less sweet than HFCS (LOSE) with a delayed sweetness”.
In the case of `C=C1C[C@@]23CC[C@H]4[C@@](C)(CCC[C@@]4(C)C(=O)O[C@@H]4O[C@H](CO)[C@@H](O)[C@H](O[C@@H]5O[C@H](CO)[C@@H](O)[C@H](O)[C@H]5O)[C@H]4O[C@@H]4O[C@H](CO)[C@@H](O)[C@H](O)[C@H]4O)[C@@H]2CC[C@]1(O[C@@H]1O[C@H](CO)[C@@H](O)[C@H](O[C@@H]2O[C@H](CO)[C@@H](O)[C@H](O)[C@H]2O)[C@H]1O[C@@H]1O[C@H](CO)[C@@H](O)[C@H](O)[C@H]1O)C3` [Reb M, Rebaudioside M, reference compound], in experiment [2], the “Bitter Aftertaste (1 min)” value came out at 1.6, the “Sweet Aftertaste (1 min)” value was 5.1, the “Bitter Aftertaste (3 min)” value worked out at 0.9 and the “Sweet Aftertaste (3 min)” value is 1.8. In experiment [2], this compound had an Astringent of 3.1, a Bitter of 4.0, a Licorice of 3.4 and a Metallic of 1.7. In addition, in experiment [2], the “Sweet AT (Appearance Time)” value is 6.8, the “Sweet Intensity (ns)” value is 10.0 and the Thickness came out at 3.5.
On to `C=C1C[C@@]23CC[C@H]4[C@@](C)(CCC[C@@]4(C)C(=O)O[C@@H]4O[C@H](CO)[C@@H](O)[C@H](O)[C@H]4O)[C@@H]2CC[C@]1(O[C@@H]1O[C@H](CO)[C@@H](O)[C@H](O[C@@H]2O[C@H](CO)[C@@H](O)[C@H](O)[C@H]2O)[C@H]1O[C@@H]1O[C@H](CO)[C@@H](O)[C@H](O)[C@H]1O)C3` [Reb A, Rebaudioside A], for which, in the experiment on 3 tasters [3] (8SE target, Test Compound Na Salt 880 ppm, blend 440 ppm + 275 ppm Reb A, Reb A 550 ppm), the sweetness and taste result is “much less sweet than 8SE”. Besides, the “onset, decay and off notes” value in the experiment on 3 tasters [3] (Test Compound Na Salt 880 ppm, blend 440 ppm + 275 ppm Reb A, Reb A 550 ppm) is “plastic/floral/metallic taste to it with a bitter and astringent linger”.
Turning to `Cc1ccc2[nH]cc(C[C@@H](N)C(=O)O)c2c1` [Compound 5, (R)-2-amino-3-(5-methyl-1H-indol-3-yl)propanoic acid], in experiment [2], the “Bitter Aftertaste (1 min)” value is 0.2, the “Sweet Aftertaste (1 min)” value is listed as 3.1, the “Bitter Aftertaste (3 min)” value is given as 0.1 and the “Sweet Aftertaste (3 min)” value was determined as 0.2. In experiment [2], this compound had an Astringent of 1.7, a Bitter of 1.5, a Licorice of 1.6 and a Metallic of 1.1. In addition, in experiment [2], the “Sweet AT (Appearance Time)” value came out at 4.2, the “Sweet Intensity (ns)” value is 10.0 and the Thickness stood at 6.7. The adaptation result with 3 tasters [1] (in combination with sucralose) was “helped reduce the adaptation commonly with sucralose”. Further, the mouthfeel result in the experiment on 3 tasters [4] (blend 550 ppm + 6.49% HFCS-55) is listed as “lower in mouthfeel”. The sweetness and taste result in the experiment with 3 tasters [4] (blend 550 ppm + 6.49% HFCS-55, HFCS-55 12.987%) is “fairly clean in taste and provides good upfront sweetness”. The “off-taste of the sweetener by itself” value in experiment [5] was “minimal bitterness, astringency and bitter linger”. Besides, the adaptation entry in the experiment on 3 tasters [3] (in combination with Reb A) is given as “helped reduce the adaptation commonly with Reb A”. Besides, the “concentration-response curve (sweetness intensity, gLMS)” value in experiment [6] is “linear relationship”.

Source of the values: patent US20220256900A1, “COMPOSITIONS WITH SUGAR LIKE CHARACTERISTICS” (CORN PRODUCTS DEVELOPMENT, INC., priority 2019, published 2022).
